From PubChem BioAssay AID2060497 (Molecular Pharmacology Branch, DTP, NCI, 2025)

Tested on: 317291-083-R-J1-PDC complex spheroids, viability
Test: Anticancer human tumor 317291-083-R-J1-PDC patient-derived soft tissue sarcoma cell line growth inhibition [GQUAD]
Details: for IC50: curve of first compound; for viability, T/C: stronger effect = lower value; active = viability on the fitted dose curve at most 10% of control; inactive = the rest
In short: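 Multi-cell-type spheroids of tumor cells with HUVEC and mesenchymal stem cells, treated with drug combinations. Concentrations descend in half-log steps from near clinical Cmax, or from 10 microM where Cmax is unknown; viability read-out.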

[1] = second compound 0.0316 µM, first compound 0.0316 µM
[2] = second compound 0.0316 µM, first compound 0.1 µM
[3] = second compound 0.0316 µM, first compound 0.316 µM
[4] = second compound 0.0316 µM, first compound 1 µM
[5] = second compound 0.0316 µM, first compound 3.16 µM
[6] = second compound 0.0316 µM, first compound 10 µM
[7] = second compound 0.1 µM, first compound 0.0316 µM
[8] = second compound 0.1 µM, first compound 0.1 µM
[9] = second compound 0.1 µM, first compound 0.316 µM
[10] = second compound 0.1 µM, first compound 1 µM
[11] = second compound 0.1 µM, first compound 3.16 µM
[12] = second compound 0.1 µM, first compound 10 µM
[13] = second compound 0.316 µM, first compound 0.0316 µM
[14] = second compound 0.316 µM, first compound 0.1 µM
[15] = second compound 0.316 µM, first compound 0.316 µM
[16] = second compound 0.316 µM, first compound 1 µM
[17] = second compound 0.316 µM, first compound 3.16 µM
[18] = second compound 0.316 µM, first compound 10 µM
[19] = second compound 1 µM, first compound 0.0316 µM
[20] = second compound 1 µM, first compound 0.1 µM
[21] = second compound 1 µM, first compound 0.316 µM
[22] = second compound 1 µM, first compound 1 µM
[23] = second compound 1 µM, first compound 3.16 µM
[24] = second compound 1 µM, first compound 10 µM
[25] = second compound 3.16 µM, first compound 0.0316 µM
[26] = second compound 3.16 µM, first compound 0.1 µM
[27] = second compound 3.16 µM, first compound 0.316 µM
[28] = second compound 3.16 µM, first compound 1 µM
[29] = second compound 3.16 µM, first compound 3.16 µM
[30] = second compound 3.16 µM, first compound 10 µM
[31] = second compound 10 µM, first compound 0.0316 µM
[32] = second compound 10 µM, first compound 0.1 µM
[33] = second compound 10 µM, first compound 0.316 µM
[34] = second compound 10 µM, first compound 1 µM
[35] = second compound 10 µM, first compound 3.16 µM
[36] = second compound 10 µM, first compound 10 µM
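Note: spheroids exposed to compounds for one week before readout.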
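Throughout, for viability, T/C: percent viability relative to DMSO vehicle wells taken as 100%.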

C=CC(=O)N1CCN(c2nc(=O)n(-c3c(C)ccnc3C(C)C)c3nc(-c4c(O)cccc4F)c(F)cc23)C(C)C1 (stereo not given) + Cc1cnc(CNC(=O)c2c(=O)c3ccc(N4CCCN(C)CC4)nc3n3c2sc2ccccc23)cn1
153 nM: IC50 (second compound 1 µM)
4430 nM: IC50 (second compound 0.316 µM)
< 31.6 nM: IC50 (second compound 3.16 µM) | IC50 (second compound 10 µM)
8780 nM: IC50 (second compound 0.1 µM)
> 10000 nM: IC50 (second compound 0.0316 µM)
inactive: viability, T/C [1] 101% | viability, T/C [2] 84.2% | viability, T/C [3] 101% | viability, T/C [4] 92.8% | viability, T/C [5] 86.2% | viability, T/C [6] 65% | viability, T/C [7] 79.1% | viability, T/C [8] 88.6% | viability, T/C [9] 91% | viability, T/C [10] 95.8% | viability, T/C [11] 70.1% | viability, T/C [12] 47.5% | viability, T/C [13] 65.7% | viability, T/C [14] 68.7% | viability, T/C [15] 54.4% | viability, T/C [16] 63.7% | viability, T/C [17] 46.9% | viability, T/C [18] 47.3% | viability, T/C [19] 59.1% | viability, T/C [20] 61.9% | viability, T/C [21] 31.9% | viability, T/C [22] 27.4% | viability, T/C [23] 30.9% | viability, T/C [24] 14.8% | viability, T/C [25] 21.3% | viability, T/C [26] 21.2% | viability, T/C [27] 41.6% | viability, T/C [28] 12.3% | viability, T/C [29] 13.8% | viability, T/C [30] 14.6% | viability, T/C [31] 22% | viability, T/C [32] 63.3% | viability, T/C [33] 22.2% | viability, T/C [34] 13.2% | viability, T/C [35] 35.4% | viability, T/C [36] 6.85%

COc1cc(C2c3cc4c(cc3C(OC3OC5COC(C)OC5C(O)C3O)C3COC(=O)C23)OCO4)cc(OC)c1O (stereo not given) + Cc1cnc(CNC(=O)c2c(=O)c3ccc(N4CCCN(C)CC4)nc3n3c2sc2ccccc23)cn1
233 nM: IC50 (second compound 0.0316 µM)
66.7 nM: IC50 (second compound 0.316 µM)
< 31.6 nM: IC50 (second compound 1 µM) | IC50 (second compound 3.16 µM) | IC50 (second compound 10 µM)
active: viability, T/C [12] 9.12% | viability, T/C [24] 8.25% | viability, T/C [29] 9.56% | viability, T/C [30] 3.72% | viability, T/C [34] 10.8% | viability, T/C [35] 5.33% | viability, T/C [36] 11.2%
inactive: viability, T/C [1] 81.6% | viability, T/C [2] 68.3% | viability, T/C [3] 41.4% | viability, T/C [4] 27.7% | viability, T/C [5] 15.4% | viability, T/C [6] 11.6% | viability, T/C [7] 57.5% | viability, T/C [8] 46.3% | viability, T/C [9] 35.3% | viability, T/C [10] 24.9% | viability, T/C [11] 15.6% | viability, T/C [13] 70.5% | viability, T/C [14] 39.3% | viability, T/C [15] 19.3% | viability, T/C [16] 18.8% | viability, T/C [17] 16.2% | viability, T/C [18] 10.7% | viability, T/C [19] 35.9% | viability, T/C [20] 28.4% | viability, T/C [21] 22.7% | viability, T/C [22] 18.7% | viability, T/C [23] 9.1% | viability, T/C [25] 22.9% | viability, T/C [26] 41.3% | viability, T/C [27] 14.7% | viability, T/C [28] 13.1% | viability, T/C [31] 28.6% | viability, T/C [32] 14.6% | viability, T/C [33] 9.56%
69.2 nM: IC50 (second compound 0.1 µM)

COc1cccc2c1C(=O)c1c(O)c3c(c(O)c1C2=O)CC(O)(C(=O)CO)CC3OC1CC(N)C(O)C(C)O1 (stereo not given) + CN(C)c1ccc(Nc2c3ccc(NC(=O)CCN4CCCC4)cc3nc3cc(NC(=O)CCN4CCCC4)ccc23)cc1
inactive: viability, T/C [1] 82.7% | viability, T/C [2] 32.4% | viability, T/C [3] 21.1% | viability, T/C [7] 64.1% | viability, T/C [8] 41.8% | viability, T/C [9] 22.2% | viability, T/C [10] 12.1% | viability, T/C [13] 64.2% | viability, T/C [14] 35.1% | viability, T/C [15] 23.6% | viability, T/C [19] 29.1% | viability, T/C [20] 18.6% | viability, T/C [21] 14.9% | viability, T/C [25] 28.8% | viability, T/C [26] 15.1% | viability, T/C [31] 9.63%
65.3 nM: IC50 (second compound 0.1 µM)
71.7 nM: IC50 (second compound 0.0316 µM)
< 31.6 nM: IC50 (second compound 1 µM) | IC50 (second compound 3.16 µM) | IC50 (second compound 10 µM)
active: viability, T/C [4] 13.2% | viability, T/C [5] 0.97% | viability, T/C [6] 0.41% | viability, T/C [11] 1.05% | viability, T/C [12] 0.35% | viability, T/C [16] 8.77% | viability, T/C [17] 1.59% | viability, T/C [18] 0.73% | viability, T/C [22] 3.06% | viability, T/C [23] 0.9% | viability, T/C [24] 0.65% | viability, T/C [27] 12.1% | viability, T/C [28] 4.09% | viability, T/C [29] 0.51% | viability, T/C [30] 0.86% | viability, T/C [32] 7.93% | viability, T/C [33] 3.54% | viability, T/C [34] 1.41% | viability, T/C [35] 1.22% | viability, T/C [36] 0.51%
57.4 nM: IC50 (second compound 0.316 µM)

CC(C)n1c(=O)n(C)c2cnc3cc(F)c(-c4ccc(OCCCN5CCCCC5)nc4)cc3c21 + CN(C)c1ccc(Nc2c3ccc(NC(=O)CCN4CCCC4)cc3nc3cc(NC(=O)CCN4CCCC4)ccc23)cc1
inactive: viability, T/C [1] 96.6% | viability, T/C [2] 88.6% | viability, T/C [3] 92.1% | viability, T/C [4] 86.7% | viability, T/C [5] 79% | viability, T/C [6] 34.3% | viability, T/C [7] 92.9% | viability, T/C [8] 79.9% | viability, T/C [9] 96.3% | viability, T/C [10] 81.9% | viability, T/C [11] 56% | viability, T/C [12] 20.6% | viability, T/C [13] 92.8% | viability, T/C [14] 65% | viability, T/C [15] 57.6% | viability, T/C [16] 47.2% | viability, T/C [17] 49.6% | viability, T/C [18] 10.5% | viability, T/C [19] 53.7% | viability, T/C [20] 44.7% | viability, T/C [21] 24.4% | viability, T/C [22] 34.4% | viability, T/C [23] 20.1% | viability, T/C [24] 7.52% | viability, T/C [25] 31.8% | viability, T/C [26] 12.2% | viability, T/C [31] 27.5%
784 nM: IC50 (second compound 0.316 µM)
< 31.6 nM: IC50 (second compound 3.16 µM) | IC50 (second compound 10 µM)
3820 nM: IC50 (second compound 0.1 µM)
6620 nM: IC50 (second compound 0.0316 µM)
42.8 nM: IC50 (second compound 1 µM)
active: viability, T/C [27] 12.3% | viability, T/C [28] 4.69% | viability, T/C [29] 4.81% | viability, T/C [30] 1.25% | viability, T/C [32] 3.95% | viability, T/C [33] 0.88% | viability, T/C [34] 0.42% | viability, T/C [35] 0.55% | viability, T/C [36] 4.73%

O=C(NO)c1cnc(N2CCN(S(=O)(=O)c3ccc4ccccc4c3)CC2)nc1 + Cc1cnc(CNC(=O)c2c(=O)c3ccc(N4CCCN(C)CC4)nc3n3c2sc2ccccc23)cn1
active: viability, T/C [3] 7.38% | viability, T/C [4] 0.63% | viability, T/C [5] 0.05% | viability, T/C [6] 0.08% | viability, T/C [9] 6.03% | viability, T/C [10] 0.12% | viability, T/C [11] 0.03% | viability, T/C [12] 0.29% | viability, T/C [15] 5.28% | viability, T/C [16] 0.07% | viability, T/C [17] 0.02% | viability, T/C [18] 0.62% | viability, T/C [21] 2.02% | viability, T/C [22] 0.07% | viability, T/C [23] 0.04% | viability, T/C [24] 0.08% | viability, T/C [25] 8.49% | viability, T/C [26] 0.73% | viability, T/C [27] 1.12% | viability, T/C [28] 1.06% | viability, T/C [29] 0.08% | viability, T/C [30] 0.11% | viability, T/C [31] 0.07% | viability, T/C [32] 0.11% | viability, T/C [33] 0.16% | viability, T/C [34] 0.1% | viability, T/C [35] 0.18% | viability, T/C [36] 0.18%
inactive: viability, T/C [1] 82.5% | viability, T/C [2] 53.5% | viability, T/C [7] 47.2% | viability, T/C [8] 41.8% | viability, T/C [13] 44.2% | viability, T/C [14] 45.2% | viability, T/C [19] 43.9% | viability, T/C [20] 15.2%
< 31.6 nM: IC50 (second compound 0.1 µM) | IC50 (second compound 0.316 µM) | IC50 (second compound 1 µM) | IC50 (second compound 3.16 µM) | IC50 (second compound 10 µM)
109 nM: IC50 (second compound 0.0316 µM)
